One substance from patent US20230172969A1, “Ophthalmic Composition” (Rohto Pharmaceutical Co., Ltd., priority 2020, published 2023) can be followed below.

The test relates to Japanese white rabbits. The experiment in a line: Dryness stress test using rabbits (methylene blue staining of corneas). Format: in vivo, rabbit. Conditions: eyelids open 3 hours, 100 μL per eye, 0.5% w/v or 3% w/v in physiological saline, compared with sodium chondroitin sulfate around 20,000, p<0.01. The procedure:
Sodium chondroitin sulfate having a weight average molecular weight of around 20,000 (Maruha Nichiro Corporation; sodium chondroitin sulfate in Japanese Pharmaceutical Codex) or sodium chondroitin sulfate having a weight average molecular weight of around 40,000 (SEIKAGAKU CORPORATION; grade N-K) was dissolved in a physiological saline solution (Otsuka Pharmaceutical Factory, Inc.) to 0.5% w/v or 3% w/v separately to prepare test substances.
Rabbits (Japanese white rabbits (KITAYAMA LABES CO., LTD.)) classified into five groups (n=5) according to the method of Nagano et al. (Journal of the Eye, 13(2), 267-270, 1996) were put under general anesthesia, rings obtained by cutting finger portions of gloves into a ring form were then installed on the right and left eyeballs, and the eyelids were opened forcedly. […] The corneas were excised from the eye surfaces, methylene blue dye was then extracted, and the absorbance at 660 nm was measured using the microplate reader Multiskan GO (Thermo Fisher Scientific K.K.). Since a cornea lesion is formed by eye dryness, and the amount of the dye attached to the cornea surfaces increases, it can be estimated that as the absorbance value increases, the eyes become dryer.

Consider sodium chondroitin sulfate, for which the “absorbance at 660 nm (methylene blue dye extracted from corneas)” value was “remarkably low”.
